Measured values taken from patent US8012484B2, “Method of treating ischemia reperfusion injury by inhibiting NKT cell activity” (University of Virginia Patent Foundation, priority 2007, dated 2011).
pEC50: −log10 of the molar value. Blank lines part the entries; values can stand above or below the compound they belong to.

Experiments:
[1] = test system: invariant NKT cells in a mixed splenocyte culture; assay: α-Gal-Cer stimulated IFN-γ production by iNKT cells in mixed splenocyte culture; type: cell-based, mice; conditions: for effect of antagonist on ATL146e inhibition of α-Gal-Cer mediated IFN-γ production: 1 μM α-Gal-Cer
Description: (§1) FIGS. 5A-E. Inhibition by ATL146e of IFN-γ production by activated NKT cells. A) Purified NKT cells (200,000 per well) were incubated on immobilized anti-CD3 mAb in the presence of vehicle or 100 nM ATL146e. Supernatants were collected after 24 hours and IFN-γ concentrations were measured by ELISA. Data are shown as the mean±SEM from three independent experiments performed in triplicate. *p<0.01 vs. vehicle control as assessed by unpaired t-test B) Bulk splenocytes (300,000 cells per well) were incubated with 1 U/mL ADA and 1 nM-1 μM α-galactosylceramide in the presence of 100 nM ATL146e or vehicle. C) Bulk splenocytes (300,000 cells per well) were incubated with 1 U/mL ADA and 1 μM α-galactosylceramide in the presence or absence of varying concentrations of ATL146e±100 nM ZM241385 or vehicle. D) Bulk splenocytes (300,000 cells per well) were incubated with 1 U/mL ADA and 1 μM α-galactosylceramide in the presence or absence of 1 nM ATL146e±1 μM 8-SPT or vehicle. E) Purified CD4^+NK1.1^+ T cells (150,000 cells per well) were incubated with lymphocyte and NK cell-deficient splenocytes (300,000 cells per well), 1 U/mL ADA and 1 μM α-galactosylceramide in the presence or absence of 100 nM ATL146e±100 nM ZM241385. NK1.1-expressing cells were depleted from RAG 1 KO splenocytes via FACSVantage SE Turbo Sorter. Supernatants were collected after 48 hours, and IFN-γ concentrations were determined by ELISA. Data shown are from a single experiment performed in triplicate, representative of three independent experiments; error bars indicate SEM. (B-E)*p<0.01 vs. vehicle control as assessed by one way ANOVA followed by Dunnetts multiple comparison test.
(§2) Cells were washed and resuspended in RPMI 1640 medium supplemented with 10% heat-inactivated fetal bovine serum and 1% antibiotic-antimycotic (Gibco, Carlsbad, Calif.). In vitro activation of NKT cells was achieved by co-culture for 48 hours with splenocytes and 1 nM-1 μM α-Gal-Cer (KRN7000; from Kumi Miyayama of Kirin Brewery Company, Tokyo) at 37° C. in 5% CO2. Alternately, NKT cells were activated by incubation for 24 hours in 96 well plates coated with 2-10 μg/mL immobilized anti-CD3 mAb (BD Biosciences) at 37° C. in 5% CO2. All in vitro T cell activation experiments were performed with the addition of 1 U/mL adenosine deaminase (ADA) (Roche, Indianapolis, Ind.) to remove endogenous adenosine produced by the cells that may partially activate the A2AR. […]
(§3) IFN-γ concentrations in cell culture supernatants or serum samples were measured by ELISA according to the manufacturer's protocol (e-Bioscience).

[2] = test system: hepatic IRI in WT C57BL/6 mice; assay: Hepatic ischemia reperfusion injury (72 min ischemia, 24 h reperfusion): serum ALT and necrotic area; type: in vivo; conditions: 72 min hepatic ischemia
Description: (§4) Mice were anesthetized by intraperitoneal injection of ketamine (100 mg/kg) and xylazine (10 mg/kg). Ambient temperature was controlled in the range of 24-26° C. and mice were placed on a 37° heating pad. Core body temperature of selected mice was monitored with a TH-8 Thermalert monitoring thermometer (Physitemp) and ranged from 35-36°. After midline laparotomy, a microaneurysm clip was applied to the hepatic triad above the bifurcation to clamp the flow of the hepatic artery, portal vein, and bile duct. After superfusion of the liver with warm saline, the peritoneum was closed during 72 min of ischemia. The peritoneum was then reopened and the microaneurysm clip was removed. […]
(§5) Following liver ischemia, blood was collected via retro-orbital bleed 24 hours after the initiation of reperfusion. Serum ALT was measured with a transaminase kit according to the manufacture's protocol (Pointe Scientific, Canton, Mich.). […] The plate was placed in a spectrophotometer preheated to 37° C., and the absorbance at […] was measured every minute for 10 minutes. The slope of the linear portion of the change in absorbance over time was used to calculate IU/L of ALT.
Mice were sacrificed and livers perfused with saline via the portal vein at various times after the initiation of reperfusion. […] Necrotic area was quantified using Adobe Photoshop software.

[3] = test system: RAG 1 KO mice reconstituted with CD4+NK1.1+ NKT cells; assay: Hepatic IRI in RAG 1 KO mice after adoptive transfer of NKT cells: serum ALT; type: in vivo
Description: as §4, with “removed. For select experiments, animals received an i.p. loading dose (1 μg/kg) of ATL146e or vehicle control immediately after the onset of reperfusion, and a primed Alzet osmotic minipump was implanted intraperitoneally.” for “removed.”
as §5

[4] = test system: NKT cells isolated from post-ischemic mouse liver and liver-draining lymph nodes; assay: Intracellular IFN-γ in NKT cells from post-ischemic liver after 2 hours of reperfusion (FACS); type: in vivo, mice; conditions: treatment at the initiation of reperfusion
Description: as §4, with “removed. For select experiments, animals received an i.p. loading dose (1 μg/kg) of ATL146e or vehicle control immediately after the onset of reperfusion, and a primed Alzet osmotic minipump was implanted intraperitoneally. ATL146e (10 ng/kg/min) or vehicle was placed in the pumps and delivered until the experiment was terminated. The peritoneum was sutured and the surgical wound was closed with metal staples.” for “removed.”
Intracellular IFN-γ was detected in liver NKT cells by FACS analysis using Fix and Perm Cell Permeabilization Reagents according to the manufacturer's protocol (Caltag Laboratories, Carlsbad, Calif.).

[5] = test system: IFN-γ; assay: Serum/plasma IFN-γ 24 hours after reperfusion (ELISA); type: in vivo, mice; conditions: 24 hours after reperfusion injury
Description: Mice were anesthetized by intraperitoneal injection of ketamine (100 mg/kg) and xylazine (10 mg/kg). Ambient temperature was controlled in the range of 24-26° C. and mice were placed on a 37° heating pad. Core body temperature of selected mice was monitored with a TH-8 Thermalert monitoring thermometer (Physitemp) and ranged from 35-36°. After midline laparotomy, a microaneurysm clip was applied to the hepatic triad above the bifurcation to clamp the flow of the hepatic artery, portal vein, and bile duct. After superfusion of the liver with warm saline, the peritoneum was closed during 72 min of ischemia. The peritoneum was then reopened and the microaneurysm clip was removed. For select experiments, animals received an i.p. loading dose (1 μg/kg) of ATL146e or vehicle control immediately after the onset of reperfusion, and a primed Alzet osmotic minipump was implanted intraperitoneally. ATL146e (10 ng/kg/min) or vehicle was placed in the pumps and delivered until the experiment was terminated. The peritoneum was sutured and the surgical wound was closed with metal staples. Animals were sacrificed by cervical dislocation at various time points after the initiation of reperfusion and blood was collected via retro-orbital bleed. […]
as §3

[6] = test system: CD4+ NK1.1+ NKT cells; assay: IFN-γ production by purified NKT cells activated on immobilized anti-CD3 mAb; type: cell-based, mice; conditions: Mus musculus, 100 nM, 24 hours of incubation, read-out: inhibition of TCR-stimulated IFN-γ production
Description: Wild-type, A2AR KO, or IFN-γ KO C57BL/6 mice were sacrificed and spleens removed. Splenocytes were passed through a 40 μm nylon cell strainer (BD Biosciences, San Jose, Calif.) and collected in phosphate buffered saline. Red blood cells were lysed and CD4^+ T lymphocytes were isolated with mouse CD4 subset column kits (R and D Systems, Minneapolis, Minn.) resulting in >92% pure CD4^+ T cells. The column-purified cells were stained for 30 minutes with FITC-conjugated anti-mouse CD4 and PE-conjugated anti-mouse NK1.1 (eBioscience, San Diego, Calif.) and sorted using a FACSVantage SE Turbo Sorter (Becton Dickinson, Franklin Lakes, N.J.) to produce cell populations of ≧99.8% pure CD4^+NK1.1^+ T lymphocytes.
as §2, with “CO2.” for “CO2. All in vitro T cell activation experiments were performed with the addition of 1 U/mL adenosine deaminase (ADA) (Roche, Indianapolis, Ind.) to remove endogenous adenosine produced by the cells that may partially activate the A2AR.”
as §3

[7] = test system: purified CD4+ NK1.1+ NKT cells; assay: IFN-γ release from purified NKT cells activated with α-Gal-Cer in the presence of NK cell-depleted RAG 1 KO splenocytes; type: cell-based, mice; conditions: 1 μM α-Gal-Cer
Description: as §1, with “E) Purified CD4^+NK1.1^+ T cells (150,000 cells per well) were incubated with lymphocyte and NK cell-deficient splenocytes (300,000 cells per well), 1 U/mL ADA and 1 μM α-galactosylceramide in the presence or absence of 100 nM ATL146e±100 nM ZM241385. NK1.1-expressing cells were depleted from RAG 1 KO splenocytes via FACSVantage SE Turbo Sorter.” left out, “Data shown are from a single experiment performed in triplicate, representative of three independent experiments; error bars indicate SEM.” left out, “test. […]” for “test.”
as §3

SMILES: Cn1c(=O)c2[nH]c(-c3ccc(S(=O)(=O)O)cc3)nc2n(C)c1=O [8-SPT, 8-sulfophenyltheophylline]
effect of antagonist on ATL146e inhibition of α-Gal-Cer mediated IFN-γ production ([1]; 1 μM antagonist, 1 nM ATL146e): blocks the inhibitory effects of ATL146e

pEC50 ([1]; Mus musculus, NKT, stimulated by 1 μM α-Gal-Cer, mixed splenocytes, 48 hours, read-out: EC50 of inhibition of iNKT-mediated production of IFN-γ): 9.24
SMILES: CCNC(=O)C1OC(n2cnc3c(N)nc(C#CCC4CCC(C(=O)OC)CC4)nc32)C(O)C1O (stereo not shown) [ATL146e, 4-{3-[6-Amino-9-(5-ethylcarbamoyl-3,4-dihydroxy-tetrahydro-furan-2-yl)-9H-purin-2-yl]-prop-2-ynyl}-cyclohexanecarboxylic acid methyl ester]
reduction in serum ALT levels versus vehicle treated controls ([2]; 24 hours after reperfusion): approximately 58% | necrotic area ([2]; 24 hours of reperfusion, H and E staining, vehicle 79.3±3%): 6.1±0.8% | protection from tissue damage (serum ALT) ([3]; RAG 1 KO mice, 250,000 NKT cells from A2AR KO mice transferred): abolishes the effect of agonist administration | protection from tissue damage (serum ALT) ([3]; RAG 1 KO mice, 250,000 WT NKT cells transferred): protects from tissue damage only when WT cells are transferred | increase in intracellular IFN-γ expression of NKT cells (activation) [4]: significantly inhibits this activation | elevation of plasma IFN-γ concentrations [5]: diminished this elevation to a similar extent | inhibition at 0.1 µM [6]: ~73% | inhibition of α-Gal-Cer stimulated IFN-γ production (in words) ([1]; 100 nM, 1 nM-1 μM α-Gal-Cer, mixed splenocyte culture, 48 hours): inhibited competently | reduction of IFN-γ derived from NKT cell activation ([7]; 100 nM ATL146e, lymphocyte-deficient NK cell-depleted RAG 1 KO splenocytes as APCs): 93%

SMILES: Nc1nc(NCCc2ccc(O)cc2)nc2nc(-c3ccco3)nn12 [ZM241385, 4-(2-[7-amino-2-[2-furyl][1,2,4]triazolo[2,3-a][1,3,5]triazin-5-yl-amino]ethyl)phenol]
effect of antagonist on ATL146e inhibition of α-Gal-Cer mediated IFN-γ production ([1]; 100 nM antagonist, varying concentrations of ATL146e): causes a right shift in the ATL146e dose response curve | effect of antagonist on ATL146e reduction of IFN-γ ([7]; co-treatment with 100 nM antagonist): this effect was blocked
